Read-outs that look alike come from different tables or passages of the source.
Key:
H460 = assay: MTT assay, NSCLC cell line; type: cell-based; conditions: Homo sapiens
HUVEC = HUVEC tubule formation assay; type: cell-based; conditions: Homo sapiens, 72 h, fibrin gel, VEGF and bFGF, counted at three days, read-out: IC50, formation of new endothelial cell tubules
Procedure: Endothelial cell tubule formation in a fibrin clot is an analog of angiogenesis and was used to assay angiogenesis inhibitors (Brown et al., Lab. Investig. 75:539, 1996). HUVEC were coated on Cytodex™ microcarrier beads (Pharmacia) at a density of 30 HUVEC per bead, in a siliconized dish containing HUVEC complete medium, for 24 hours. […] Tubules were counted at three days.

breast cancer lines = assay: propidium iodide flow cytometry; type: cell-based, human; conditions: at the IC50 concentration of ritonavir
[1] = tested on: Caco 2 0.5-11 (calpastatin over-expressing); assay: MTT assay, 96 well plate, 48 h; type: cell-based; conditions: Homo sapiens, Caco-2, read-out: Ritonavir IC50, 0.5-11 line (calpain activity reduction of 80%)
Caco 2 cells = assay: proliferation / combination assay in colon cancer cells; type: cell-based; conditions: Homo sapiens
[2] = tested on: 436 with expression of IκB α super-repressor of NF-κB; assay: clonogenic assay (LD50), ritonavir sensitivity; type: cell-based, human; conditions: 436 expressing IκB α super-repressor of NF-κB
Text: This finding is consistent with the implication of signaling pathways in the resistance of breast cancer cell lines to chemotherapy (Patel et al., Oncogene 19:4159-4169).
We note that the IC50 is derived from MTT assays, while the LD50 is derived from clonogenic assays.

A549 = assay: MTT assay, NSCLC cell line; type: cell-based; conditions: Homo sapiens
H522 = assay: MTT assay, NSCLC cell line; type: cell-based; conditions: Homo sapiens
MDA-231 = assay: MTT assay, breast cancer line; type: cell-based; conditions: Homo sapiens
Procedure: (§1) The drugs were tested together at the ratio of their IC50 as single agents, over a 4-log range of concentrations. […] Viable cell number was measured by MTT assay.

SKBR-3 = assay: MTT assay, breast cancer line; type: cell-based; conditions: Homo sapiens, SK-BR-3, read-out: Ritonavir IC50
Procedure: as §1

T47D = assay: MTT assay, breast cancer line; type: cell-based; conditions: Homo sapiens, read-out: Ritonavir IC50
Procedure: as §1

MDA-436 = assay: MTT assay, breast cancer line; type: cell-based; conditions: Homo sapiens, read-out: Ritonavir IC50; MDA-436 parental line
Procedure: as §1

MCF7 = assay: MTT assay, breast cancer line; type: cell-based; conditions: Homo sapiens, MCF7, read-out: Ritonavir IC50
Procedure: as §1

MDA-MD-435 cells = assay: proliferation assay, MTT, 24 hours; type: cell-based; conditions: Homo sapiens, 24 hours exposure, averaging 2 experiments
Procedure: Proliferation assays were done by plating cells in a 96 well plate at […] for the 231 cells and 5×10^3 cells per well for the 435 cells. The cells were allowed to attach and grow for 24 hours. […] The cells were allowed to grow for 24 hours and the number of viable cells was measured by MTT assay.

[3] = tested on: MDA-436IκBSR (super-repressor of NF-κB over-expressed); assay: MTT assay, breast cancer line; type: cell-based; conditions: Homo sapiens, read-out: Ritonavir IC50
in vivo = conditions: mouse, ip
[4] = biological target: T1, chymotryptic active site of the proteasome (ZGGL-AMC cleavage) (Homo sapiens, UniProt P28074); assay: fluorometric assay of ZGGL-AMC cleavage by Caco 2 cells; type: cell-based; conditions: for ZGGL-AMC cleavage: Caco 2 cells (DMSO control 0.287)
T1 construct: Fluorometric assay of ZGGL-AMC cleavage by Caco 2 cells; endogenous in cells; host or cells: Caco 2

Surface her2 = assay: surface her2 in breast cancer lines under ritonavir; type: cell-based, human; conditions: SKBR-3, ritonavir treatment
[5] = tested on: Caco 2 C9 control (pRC/CMV vector); assay: MTT assay, 96 well plate, 48 h; type: cell-based; conditions: Caco-2, 48 h, read-out: Ritonavir IC50
m-calpain = biological target: T2, m-calpain (Homo sapiens, UniProt P17655); assay: ionomycin activated m-calpain activity in Caco 2A cells; type: cell-based; conditions: 0, 5, 10, 20, and 120 μM, FIG. 3
T2 construct: endogenous in cells; host or cells: Caco 2A
Procedure: (The Caco 2a calls were treated and analyzed as in Example 4).

EGF receptor = EGF receptor expression in Caco 2 cells, Western blot; type: cell-based; conditions: 20 μM, 24 hours, confluent Caco 2
Procedure: The medium was not changed. After 24 hours, the cells were harvested by Triton X-100 lysis, and Western blot analysis was performed on the supernatant, which contains solubilized EGF receptor.

[6] = tested on: MDA-436LXSN (vector control line); assay: MTT assay, breast cancer line; type: cell-based; conditions: Homo sapiens, read-out: Ritonavir IC50
[7] = ritonavir serum levels in mice
[8] = tested on: MDA-MB-435 human breast cancer xenografts; assay: nude mouse mammary fat pad xenograft model; type: in vivo, nude mice; conditions: 19 days
Procedure: An inoculum of 5×10^5 MDA-MB-435 cells in 100 μl was injected into the mammary fat pad of each female animal. […] The tumor growth rate was reduced by 16% in the mice treated at 20 mg/kg, compared to the mice treated with vehicle.

T2 sequence (P17655 20-700 limits assumed): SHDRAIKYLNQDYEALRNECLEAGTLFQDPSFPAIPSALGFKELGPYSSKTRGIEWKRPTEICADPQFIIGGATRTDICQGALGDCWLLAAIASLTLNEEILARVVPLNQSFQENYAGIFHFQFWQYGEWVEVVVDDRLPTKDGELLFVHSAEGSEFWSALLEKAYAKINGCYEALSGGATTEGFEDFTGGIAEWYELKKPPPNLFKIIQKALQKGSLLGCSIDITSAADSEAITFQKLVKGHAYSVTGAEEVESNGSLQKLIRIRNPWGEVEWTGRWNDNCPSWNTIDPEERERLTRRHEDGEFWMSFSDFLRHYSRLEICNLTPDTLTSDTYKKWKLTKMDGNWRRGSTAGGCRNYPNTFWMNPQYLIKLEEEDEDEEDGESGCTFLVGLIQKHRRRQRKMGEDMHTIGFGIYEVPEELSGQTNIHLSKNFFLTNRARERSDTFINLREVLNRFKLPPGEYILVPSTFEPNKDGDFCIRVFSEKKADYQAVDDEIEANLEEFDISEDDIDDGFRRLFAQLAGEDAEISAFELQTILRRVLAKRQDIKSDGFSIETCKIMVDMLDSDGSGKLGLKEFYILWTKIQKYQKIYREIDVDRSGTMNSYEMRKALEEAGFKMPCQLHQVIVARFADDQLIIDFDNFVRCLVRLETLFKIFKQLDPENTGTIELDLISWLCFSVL
T2 sequence (P04632 whole entry partner): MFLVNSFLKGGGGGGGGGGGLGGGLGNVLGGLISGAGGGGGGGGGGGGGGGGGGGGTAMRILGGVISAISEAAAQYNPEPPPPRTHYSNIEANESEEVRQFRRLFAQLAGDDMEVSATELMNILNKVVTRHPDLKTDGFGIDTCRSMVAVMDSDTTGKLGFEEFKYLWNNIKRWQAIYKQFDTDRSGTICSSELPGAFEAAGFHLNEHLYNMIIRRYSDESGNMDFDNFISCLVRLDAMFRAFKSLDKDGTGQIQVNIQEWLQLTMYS

CC(C)c1nc(CN(C)C(=O)N[C@H](C(=O)N[C@@H](Cc2ccccc2)C[C@H](O)[C@H](Cc2ccccc2)NC(=O)OCc2cncs2)C(C)C)cs1 [Ritonavir, ritonavir]
IC50 (H460; NCI-H460): 47.5 µM
IC80 (H460; NCI-H460, single agent): 100 µM
IC50 (HUVEC): 16 µM
cell cycle (breast cancer lines): induces cell cycle arrest
IC50 [1]: 15 µM
IC50 (Caco 2 cells; Caco-2, 48 h, read-out: IC50 (50% inhibition of proliferation)): 30 µM
IC50 (Caco 2 cells; Caco 2, single agent, read-out: IC50): 45 µM
LD50 [2]: 40 µM
IC80 (A549; A549, MTT assay, single agent): 45 µM
IC50 (A549; MTT assay): 35 µM
IC50 (H522; NCI-H522): 42.5 µM
IC80 (H522; NCI-H522, single agent): 90 µM
IC50 (MDA-231; MDA-MB-231, read-out: Ritonavir IC50, MDA-231): 50 µM
IC50 (MDA-231; MDA-MB-231, MDA-231, 48 hours, MTT, single agent, read-out: IC50): 60 µM
IC50 (SKBR-3): 60 µM
IC50 (T47D): 12 µM
IC50 (MDA-436): 40 µM
IC50 (MCF7): 25 µM
IC50 (MDA-MD-435 cells): ~150 µM
IC50 [3]: 26 µM
half-life (in vivo): < 3 h
ZGGL-AMC cleavage ([4]; 6 μM): 0.432 pmol·s^1− 10^6 cells
ZGGL-AMC cleavage ([4]; 12 μM): 0.412 pmol·s^1− 10^6 cells
ZGGL-AMC cleavage ([4]; 24 μM): 0.337 pmol·s^1− 10^6 cells
ZGGL-AMC cleavage ([4]; 60 μM): 0.409 pmol·s^1− 10^6 cells
effect on ZGGL-AMC cleavage ([4]; Caco 2 cells): does not block cleavage
Surface her2 Ritonavir (Surface her2): 0.4
IC50 [5]: 30 µM
inomycin activated m-calpain (m-calpain): dose dependent decrease
EGF receptor down regulated (EGF receptor): 20%
IC50 [6]: 42 µM
trough drug levels ([7]; Tween 80, ip injection): less than 0.1 μM
peak ritonavir concentrations ([7]; oral gavage, Norvir liquid, 40 mg/kg body weight): less than 1 μM
tumor growth rate reduced, compared to vehicle ([8]; 10 mg/kg daily gavage, one outlier tumor removed): 49%
tumor growth rate reduced, compared to vehicle ([8]; 20 mg/kg daily gavage, all tumors): 16%
tumor growth rate reduced, compared to vehicle ([8]; 20 mg/kg daily gavage, outlier tumor removed): 55%
